Source: patent US20180147153A1, “PROCESS FOR MAKING A COATED DOSAGE FORM” (Johnson & Johnson Consumer Inc., priority 2016, published 2018)

How the values were obtained:
Type in all cases: physicochemical
[1] = Dielectric properties (e′, e″, loss tangent, Q value) by Slotted Line Method
From the text: The property of permittivity is the measure of the resistance to forming an electric field. For purposes of comparing materials in air, it is often convenient to describe the permittivity of material in air where the permittivity is more specifically called “relative permittivity” or €r. This is a complex number represented by the following equation: […]
where e′ (the real portion of the complex number) is the dielectric constant (energy storage) and e″ (the imaginary portion of the complex number) is the dielectric loss or dissipation factor (energy dissipated as heat). The ratio of dielectric loss (e″) over the dielectric constant (e′) is called the loss tangent (tan δ) or power factor.
For purposes of this invention, the Q value is calculated for the frequency that the material is to be processed (e.g., 27 MHz). The Q value is affected by physical and chemical properties such as density (porosity/particle size), moisture (conductivity), temperature, and molecular polarizability. The measurements obtained by this method can eliminate the need to measure and evaluate these properties independently.
This process is referred to as the “Slotted Line Method.” Unless otherwise stated, the Slotted line method was used for the calculation of e′, e″, and Q value herein with the frequency range set to 26-28 MHz (31 points resolution) and values of e′ and e″ were recorded from the 27 MHz data point.

[2] = Loss on drying (moisture); settings: Table 1b
Description: In one embodiment, the lossy coated particle contains water. In this embodiment, the lossy coated particle comprises at least 0.1 percent, by weight, water, such as at least 0.3 percent, by weight, water, such as at least 0.5 percent, by weight, water when measured using loss on drying at 105° C. until the weight of the lossy coated particles has stabilized. In one embodiment, the lossy coated particle retains water when measured by loss on drying prior to sintering, such as moisture content of at least 0.1 percent by weight, such as from about 0.1 to about 3 percent, such as from about 0.5 to about 2 percent, by weight.

[3] = Water activity; settings: Table 1b
[4] = Table 1b, surface stabilizing agents, 27 MHz

Row | SMILES | e′ ([1]; Table 1a, dielectric constant, 27 MHz data point, Slotted Line Method) | e″ ([1]; Table 1a, dielectric loss, 27 MHz data point, Slotted Line Method) | Loss Tangent ([1]; Table 1a, e″/e′, 27 MHz) | e′ [1, 4] | e″ [1, 4] | Loss on Drying @ 105° C. [2] | Water Activity [3]
1 | OC[C@@H](O)[C@@H](O[C@H]1O[C@H](CO)[C@@H](O)[C@H](O)[C@H]1O)[C@H](O)[C@@H](O)CO [Maltitol (SweetPearl DC300), Maltitol] | 1.6214 | 0.0035 | 0.0022 |  |  |  | 
2 | OC[C@H]1O[C@H](O[C@H]2O[C@H](CO)[C@@H](O)[C@H](O)[C@H]2O)[C@H](O)[C@@H](O)[C@@H]1O [Trehalose] |  |  |  | 1.5185 | 0.0007 | 0.137 | 0.1935
3 | OC[C@@H](O)[C@H](O)[C@@H](O)CO [Xylitol (Xylitab ® 100), Xylitol] |  |  |  | 1.751 | 0.010 | 0.035 | 0.453
